Patent publication US20260240878A1, “PTP1B/TC-PTP DUAL INHIBITORS AND PROTEIN DEGRADERS” (Purdue Research Foundation, priority 2023, published 2026)
Like-named read-outs stand apart in the source and are kept apart here. *1 amine or outer side, *2 acyl side, *3 side chain or, on linkers, in order; H or OH if unused. Where a SMILES comes first, the peptide text is derived from it. [ ]: non-standard residue; d: D form. The star is where a group is joined. NHBn(4-(4-Me-thiazol-5-yl)) = Cc1ncsc1-c1ccc(CN*)cc1; NHCH2(1,3-C6H4)CH2CO = O=C(Cc1cccc(CN[*:1])c1)[*:2]; F2Pmp = N[C@@H](Cc1ccc(C(F)(F)P(=O)(O)O)cc1)C(=O)O; Phenylacetyl(4-OH,3-OMe) = COc1cc(CC(=O)*)ccc1O; Benzoyl(3-Br,4-Me) = Cc1ccc(C(=O)*)cc1Br; X1 = Cc1ncsc1-c1ccc([C@H](C)N*)cc1; Hyp = O=C(O)[C@@H]1C[C@@H](O)CN1; X3 = O=C(CCC1CCN([*:1])CC1)[*:2]; Tle = CC(C)(C)[C@H](N)C(=O)O; 4Amb = NCc1ccc(C(=O)O)cc1; PEG1 = NCCOCCC(=O)O

What was measured:
TC-PTP [1] = molecular target: T1, TC-PTP (Homo sapiens, UniProt P17706); experiment: Degradation assay in HEK293 cells (immunoblotting); format: cell-based; set-up: endogenous in cells; host or cells: HEK293; details: 0.2 μM degrader, 16 hours, read-out: % Protein Degradation TC-PTP
T1 sequence (P17706 1-415): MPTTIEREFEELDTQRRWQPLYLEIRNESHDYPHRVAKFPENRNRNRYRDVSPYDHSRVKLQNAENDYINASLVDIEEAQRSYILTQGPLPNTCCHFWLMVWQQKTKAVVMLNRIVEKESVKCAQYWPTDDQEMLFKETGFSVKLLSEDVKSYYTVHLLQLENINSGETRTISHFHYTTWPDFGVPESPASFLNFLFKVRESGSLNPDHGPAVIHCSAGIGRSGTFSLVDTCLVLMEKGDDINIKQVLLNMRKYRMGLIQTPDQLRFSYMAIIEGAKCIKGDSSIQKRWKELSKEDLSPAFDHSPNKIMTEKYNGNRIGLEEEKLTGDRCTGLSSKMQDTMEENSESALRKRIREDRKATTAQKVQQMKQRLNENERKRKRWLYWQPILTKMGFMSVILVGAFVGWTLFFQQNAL
Description: (§1) HEK293. MIAPaCa-2, HepG2, U2OS, H116, MEF, B16F10, and MC38 cells, were grown in DMEM, while Jurkat and H358 cells were grown in RPMI 1640 supplemented with 10% fetal bovine serum, penicillin (50 units/mL), and streptomycin (50 μg/mL) in a 37° C. incubator containing 5% CO2. 20 ng/ml human (Biolegend #713906) or mouse (Biolegend #714006) Interferon-γ were used for JAK/STAT pathway stimulation.
(§2) Tissues or cultured cells were lysed with ice-cold lysis buffer (50 mM Tris (pH 8.0, 150 mM NaCl, 10% Glycerol, 1% Triton-X-100) supplied with phosphatase inhibitor (Bimake) and protease inhibitor mixture (Roche Applied Science). Equal amounts of protein were resolved by SDS-PAGE, transferred to nitrocellulose membrane, and subjected to immunoblotting. Antibodies used in this study include anti-following proteins: pSTAT1^Tyr701 (Cell Signaling Technology #9167, 1:3000), GAPDH (Cell Signaling Technology #97166, 1:5000), pJAK1^Tyr1034/1035 (Cell Signaling Technology #74129, 1:1000), pJAK2^Tyr1007/1008 (Cell Signaling Technology #3776, 1:1000), TC-PTP (Abcam #ab180764, 1:3000). PTP1B (Abcam #ab244207, 1:1500).
(§3) Degradation assay was conducted in HEK293 cells with 1 μM degrader and 24 hours incubation.
(§4) The degradation assay was conducted in HEK293 cells with 0.2 μM degrader and 16 hours incubation.

TC-PTP [2] = molecular target: T1, TC-PTP; experiment: PTP activity assay with pNPP substrate (IC50, Ki, mode of inhibition); format: biochemical
Description: (§5) PTP activity was assayed using p-nitrophenyl phosphate (pNPP) as a substrate in DMG buffer (50 mM DMG. pH 7.0, 1 mM EDTA, 150 mM NaCl, 2 mM DTT, 0.1 mg/mL BSA) at 25° C. The assays were performed in 96-well plates. Normally, to determine the IC50 values, the reaction was initiated by the addition of enzyme (for PTP1B and TCPTP, the final concentration was 0.4 nM, for other PTPs, the final concentration was 10 nM) to a reaction mixture (0.2 mL) containing 2 mM (Km for the substrate) pNPP with various concentrations of inhibitors (see FIG. 1). The reaction rate was measured using a SpectraMax Plus 384 Microplate Spectrophotometer (Molecular Devices). Data were fitted using SigmaPlot Enzyme Kinetics Module (Systat Software, Inc.). To determine the mode of inhibition, the reactions were initiated by the addition of enzyme (final concentration for TC-PTP and PTP1B was 0.4 nM) to the reaction mixtures (0.2 mL) containing various concentrations of pNPP with different concentrations of the inhibitor. Data were fitted using SigmaPlot Enzyme Kinetics Module (Systat Software. Inc.).

PTP1B [3] = molecular target: T2, PTP1B (Homo sapiens, UniProt P18031); experiment: as above; format: biochemical
T2 sequence (P18031 1-435): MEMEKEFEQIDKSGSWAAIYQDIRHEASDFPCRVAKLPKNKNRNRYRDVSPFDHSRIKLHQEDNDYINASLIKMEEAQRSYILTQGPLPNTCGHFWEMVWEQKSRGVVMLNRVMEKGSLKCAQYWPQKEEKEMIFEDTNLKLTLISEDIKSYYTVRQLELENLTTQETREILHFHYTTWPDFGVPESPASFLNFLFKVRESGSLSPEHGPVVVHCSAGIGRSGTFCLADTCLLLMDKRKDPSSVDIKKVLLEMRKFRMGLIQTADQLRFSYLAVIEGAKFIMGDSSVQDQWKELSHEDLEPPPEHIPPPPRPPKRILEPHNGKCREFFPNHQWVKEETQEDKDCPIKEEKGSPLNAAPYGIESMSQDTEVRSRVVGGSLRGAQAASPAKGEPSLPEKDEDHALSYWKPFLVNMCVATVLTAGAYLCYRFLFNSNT
Description: as §5

TC-PTP [4] = molecular target: T1, TC-PTP; experiment: Degradation assay in HEK293 cells (immunoblotting); format: cell-based; set-up: Degradation assay was conducted in HEK293 cells with 1 μM degrader and 24 hours incubation; endogenous in cells; host or cells: HEK293; details: 1 μM degrader, 24 hours, read-out: % Protein Degradation TC-PTP
Description: as §1, §2, §3, §4

PTP1B [5] = molecular target: T2, PTP1B; experiment: Degradation assay in HEK293 cells (immunoblotting); format: cell-based; set-up: endogenous in cells; host or cells: HEK293; details: 0.2 μM degrader, 16 hours
Description: as §1, §2, §3, §4

[6] = pNPP 2 mM, pH 7.0, 25° C., read-out: IC50, nM TC-PTP
[7] = pNPP 2 mM, pH 7.0, 25° C., read-out: IC50, nM PTP1B

Row | Structure (SMILES) | percent TC-PTP degradation at 0.2 µM (TC-PTP [1]) [%] | Ki (TC-PTP [2]; TC-PTP catalyzed pNPP hydrolysis) [nM] | IC50 (TC-PTP [2]; [6]) [nM] | Ki (PTP1B [3]; PTP1B-catalyzed pNPP hydrolysis) [nM] | IC50 (PTP1B [3]; [7]) [nM] | percent TC-PTP degradation at 1 µM (TC-PTP [4]) [%] | % Protein Degradation PTP1B (PTP1B [5]) [%] | IC50 (TC-PTP [2]) [nM] | IC50 (PTP1B [3]) [nM]
1 | COc1cc(CC(=O)N[C@@H](Cc2ccccc2)C(=O)N[C@@H](Cc2ccc(C(F)(F)P(=O)(O)O)cc2)C(=O)N[C@@H](CCCCNC(=O)c2ccc(C)c(Br)c2)C(N)=O)ccc1O [Example 7, ((4-((S)-3-(((S)-1-amino-6-(3-bromo-4-methylbenzamido)-1-oxohexan-2-yl)amino)-2-((S)-2-(2-(4-hydroxy-3-methoxyphenyl)acetamido)-3-phenylpropanamido)-3-oxopropyl)phenyl)difluoromethyl)phosphonic Acid] | 0 | 3.6 | 7.1 ± 0.4 | 2.4 | 4.7 ± 0.3 | 0 | – | – | –
2 | COc1cc(CC(=O)N[C@@H](Cc2ccccc2)C(=O)N[C@@H](Cc2ccc(C(F)(F)P(=O)(O)O)cc2)C(=O)N[C@@H](CCCCNC(=O)c2ccc(C)c(Br)c2)C(=O)NCc2ccccc2CCC(=O)N[C@H](C(=O)N2C[C@H](O)C[C@H]2C(=O)NCc2ccc(-c3scnc3C)cc2)C(C)(C)C)ccc1O (stereo in doubt) [Compound 40, ((4-((S)-3-(((S)-6-(3-bromo-4-methylbenzamido)-1-((2-(3-(((S)-1-((2S,4R)-4-hydroxy-2-((4-(4-methylthiazol-5-yl)benzyl)carbamoyl)pyrrolidin-1-yl)-3,3-dimenthyl-1-oxobutan-2-yl)amino)-3-oxopropyl)benzyl)amino)-1-oxohexan-2-yl)amino)-2-((S)-2-(2-(4-hydroxy-3-methoxyphenyl)acetamido)-3-phenylpropanamido)-3-oxopropyl)phenyl)difluoromethyl)phosphonic Acid] | 0 | – | – | – | – | – | 16 | 2.9 ± 0.5 | 3.8 ± 0.4
3 | COc1cc(CC(=O)N[C@@H](Cc2ccccc2)C(=O)N[C@@H](Cc2ccc(C(F)(F)P(=O)(O)O)cc2)C(=O)N[C@@H](CCCCNC(=O)c2ccc(C)c(Br)c2)C(=O)NCc2cccc(CC(=O)N[C@H](C(=O)N3C[C@H](O)C[C@H]3C(=O)NCc3ccc(-c4scnc4C)cc3)C(C)(C)C)c2)ccc1O [Compound 48, ((4-((S)-3-(((S)-6-(3-bromo-4-methylbenzamido)-1-((3-(2-(((S)-1-((2S,4R)-4-hydroxy-2-((4-(4-methylthiazol-5-yl)benzyl)carbamoyl)pyrrolidin-1-yl)-3,3-dimethyl-1-oxobutan-2-yl)amino)-2-oxoethyl)benzyl)amino)-1-oxohexan-2-yl)amino)-2-((S)-2-(2-(4-hydroxy-3-methoxyphenyl)acetamido)-3-phenylpropanamido)-3-oxopropyl)phenyl)difluoromethyl)phosphonic Acid] ({Phenylacetyl(4-OH,3-OMe)}-F[F2Pmp]K(Benzoyl(3-Br,4-Me))[NHCH2(1,3-C6H4)CH2CO][Tle][Hyp]-{NHBn(4-(4-Me-thiazol-5-yl))}) | 70 | – | 11.5 ± 0.6 | – | 16.7 ± 3.3 | – | 75 | – | –
4 | COc1cc(CC(=O)N[C@@H](Cc2ccccc2)C(=O)N[C@@H](Cc2ccc(C(F)(F)P(=O)(O)O)cc2)C(=O)N[C@@H](CCCCNC(=O)c2ccc(C)c(Br)c2)C(=O)N2CCC(CCC(=O)N[C@H](C(=O)N3C[C@H](O)C[C@H]3C(=O)NCc3ccc(-c4scnc4C)cc3)C(C)(C)C)CC2)ccc1O [Compound 58, ((4-((S)-3-(((S)-6-(3-bromo-4-methylbenzamido)-1-(4-(3-(((S)-1-((2S,4R)-4-hydroxy-2-((4-(4-methylthiazol-5-yl)benzyl)carbamoyl)pyrrolidin-1-yl)-3,3-dimethyl-1-oxobutan-2-yl)amino)-3-oxopropyl)piperidin-1-yl)-1-oxohexan-2-yl)amino)-2-((S)-2-(2-(4-hydroxy-3-methoxyphenyl)acetamido)-3-phenylpropanamido)-3-oxopropyl)phenyl)difluoromethyl)phosphonic Acid] ({Phenylacetyl(4-OH,3-OMe)}-F[F2Pmp]K(Benzoyl(3-Br,4-Me))[X3][Tle][Hyp]-{NHBn(4-(4-Me-thiazol-5-yl))}) | 32 | – | 8 ± 0.7 | – | 8.9 ± 0.5 | – | 26 | – | –
5 | COc1cc(CC(=O)N[C@@H](Cc2ccccc2)C(=O)N[C@@H](Cc2ccc(C(F)(F)P(=O)(O)O)cc2)C(=O)N[C@@H](CCCCNC(=O)c2ccc(C)c(Br)c2)C(=O)NCCOCCC(=O)N[C@H](C(=O)N2C[C@H](O)C[C@H]2C(=O)N[C@@H](C)c2ccc(-c3scnc3C)cc2)C(C)(C)C)ccc1O [Compound 27, ((4-((2S,5S,15S)-5-(4-(3-bromo-4-methylbenzamido)butyl)-15-((2S,4R)-4-hydroxy-2-(((S)-1-(4-(4-methylthiazol-5-yl)phenyl)ethyl)carbamoyl)pyrrolidine-1-carbonyl)-2-((S)-2-(2-(4-hydroxy-3-methoxyphenyl)acetamido)-3-phenylpropanamido)-16,16-dimethyl-3,6,13-trioxo-10-oxa-4,7,14-triazaheptadecyl)phenyl)difluoromethyl)phosphonic Acid] ({Phenylacetyl(4-OH,3-OMe)}-F[F2Pmp]K(Benzoyl(3-Br,4-Me))[PEG1][Tle][Hyp]-X1) | 63 | – | 6.7 ± 2 | – | 15.5 ± 2.1 | – | 75 | – | –
6 | COc1cc(CC(=O)N[C@@H](Cc2ccccc2)C(=O)N[C@@H](Cc2ccc(C(F)(F)P(=O)(O)O)cc2)C(=O)N[C@@H](CCCCNC(=O)c2ccc(C)c(Br)c2)C(=O)NCc2ccc(C(=O)N[C@H](C(=O)N3C[C@H](O)C[C@H]3C(=O)NCc3ccc(-c4scnc4C)cc3)C(C)(C)C)cc2)ccc1O [Compound 54, ((4-((S)-3-(((S)-6-(3-bromo-4-methylbenzamido)-1-((4-(((S)-1-((2S,4R)-4-hydroxy-2-((4-(4-methylthiazol-5-yl)benzyl)carbamoyl)pyrrolidin-1-yl)-3,3-dimethyl-1-oxobutan-2-yl)carbamoyl)benzyl)amino)-1-oxohexan-2-yl)amino)-2-((S)-2-(2-(4-hydroxy-3-methoxyphenyl)acetamido)-3-phenylpropanamido)-3-oxopropyl)phenyl)difluoromethyl)phosphonic Acid] ({Phenylacetyl(4-OH,3-OMe)}-F[F2Pmp]K(Benzoyl(3-Br,4-Me))[4Amb][Tle][Hyp]-{NHBn(4-(4-Me-thiazol-5-yl))}) | 37 | – | 21.3 ± 1.7 | – | 51.2 ± 14.4 | – | 24 | – | –
